Measurements as given in patent US6521445B1, “Process for preparing optically active glycidate esters” (Sepracor, Inc., priority 1988, dated 2003).
Blank lines part the entries; values can stand above or below the compound they belong to.

What was measured:
[1] = Non-enzymatic degradation of substrate ester in the presence of BSA; format: physicochemical
Text: Following these experiments, another factor was then considered. As the interfacial activity of any compound will be affected by surfactants, for instance a protein, one could expect the presence of the enzyme to exert effects on the non-enzymatic nonspecific degradation of the substrate compound. To test this proposition, control experiments were run in which bovine serum albumin (BSA) was substituted for the hydrolytic enzyme in the reaction mixture. The chlorinated hydrocarbons and p-xylene were omitted for convenience.
Racemic 3-(4-methoxyphenyl) glycidic acid methyl ester (10.0 mmols, 2.08 g) was dissolved in 50 mL of the chosen organic solvent, and added to 50 mL of 200 mM sodium phosphate buffer at the chosen pH (7.0, 8.0, or 8.5) in a 250 mL shaker flask. Bovine serum albumin (BSA, 100 mg) was then added. The flask was closed, and agitated for 18 hours at ambient temperature (20-25° C.). The reaction mixture was then poured into a separatory funnel, the organic layer removed (except in the case of 1,4-dioxane, which is miscible in water), and the aqueous layer washed with diethyl ether. The organic layers were then combined, backwashed with water, and dried over anhydrous magnesium sulfate. The organic solvent was then removed under reduced pressure, and the recovered ester weighed to determine the extent of non-enzymatic degradation.

[2] = Stability of glycidic ester in aqueous phosphate buffer with and without toluene; format: physicochemical
Text: In the present invention, enzyme catalysts are present either dissolved or dispersed in an aqueous phase. Although the glycidic esters described herein are generally quite insoluble in water, the epoxide ring is susceptible to opening through nucleophilic attack by species such as hydroxide ions and water molecules, even in the absence of enzymes. […] Therefore, the use of an organic phase as a method for protecting the substrate from undesired transformations by water, hydroxide ions, or water-soluble buffer systems is a significant aspect of this invention. These experimental observations indicate the need for a biphasic system, and preferably a multiphase/extractive membrane reactor as described below, for efficiently conducting the enzyme-mediated resolution process disclosed herein.

[3] = Loss of compound A on extraction with 10% bisulfite solution; format: physicochemical; conditions: diethyl ether solution extracted once with 10% bisulfite solution
Description: 2.0 g of pure, racemic compound A were dissolved in 200 mls of diethyl ether. This organic solution was then extracted once with 250 mls of a 10% bisulfite solution, washed with 250 mls water, dried over magnesium sulphate, and evaporated to leave 1.8 g of racemic compound A, indicating a 10% loss of material. Recovery of material in the absence of the bisulfite wash was nearly quantitative.

[4] = Solubility of racemic ester in toluene; format: physicochemical; conditions: 4° C.
Description: The amount of toluene required to dissolve the racemic ester at 4° C. was determined by dividing the weight of racemic ester by the solubility of the ester in toluene at this temperature (˜0.13 g of racemic ester/g of toluene). The weight of toluene required was then 19.07/0.13=146.7 g. The two organic fractions were combined and toluene was then evaporated until the total weight of toluene plus ester was equal to 146.7+109.5 or 256.2 g. Afterward, the organic concentrate containing ester and toluene was cooled to 4° C. for 18 hours in order to crystallize the (2R,3S) enantiomer of the ester. The precipitated crystals were then filtered and analyzed, while the mother liquor was saved for recycling. The amount of solids collected was 91.9 g. […] The yield of resolved ester was 38.6%.

[5] = Stability of GLOP / racemic ester in solvents on standing; format: physicochemical
Text: At six days, only about half of the original amount of ester remained.

[6] = Degradation rate of racemic ester in membrane reactor system, toluene vs MIBK; format: physicochemical; conditions: organic solution in contact with 50 mM phosphate buffer pH 8.0, membrane reactor
Description: In a separate experiment, the degradation rate of racemic ester was measured in a membrane reactor system using two kinds of solvent, toluene and methyl isobutyl ketone (MIBK), at different concentrations of glycidyl ester. These organic solutions were brought into contact separately with a 50 mM phosphate buffer (pH 8.0) to simulate enzymatic resolution conditions. The amount of ester present in the organic solutions was monitored over several hours.

Lipase OF = assay: Degree of inhibition by reaction products: initial rate of hydrolysis of compound A by Lipase OF; format: biochemical, Candida cylindracea; conditions: pH 8.0, 400 mM compound A in toluene, in the presence of 1 mmole (50 mM) of the compound, A alone = 1.0
Description: (§1) A reaction mixture composed of 12 mls of 50 mM sodium phosphate buffer at pH 8.0 and 8 mls of a 400 mM toluene solution of pure, racemic compound A, was rapidly stirred and the reaction rate monitored by a device known as a “pH stat”. A given amount of a given commercial enzyme preparation was then added to the reaction mixture, and the initial rate of hydrolysis calculated. The reaction was repeated in the presence of 1 mmole (50 mM) of compound C, in the presence of 1 mmole (50 mM) of compound D, and in the presence of 1 mmole (50 mM) of compound E. The results are tabulated in Table 11.

Lipase MAP = assay: Degree of inhibition by reaction products: initial rate of hydrolysis of compound A by Lipase MAP; format: biochemical; conditions: pH 8.0, 400 mM compound A in toluene, in the presence of 1 mmole (50 mM) of the compound, A alone = 1.0
Description: as §1

Lipase P = molecular target: T1, Lipase P (Burkholderia cepacia, UniProt P22088); assay: Degree of inhibition by reaction products: initial rate of hydrolysis of compound A by Lipase P; format: biochemical; conditions: pH 8.0, 400 mM compound A in toluene, in the presence of 1 mmole (50 mM) of the compound, A alone = 1.0
T1 construct: purchased Amano
T1 sequence (P22088 45-364): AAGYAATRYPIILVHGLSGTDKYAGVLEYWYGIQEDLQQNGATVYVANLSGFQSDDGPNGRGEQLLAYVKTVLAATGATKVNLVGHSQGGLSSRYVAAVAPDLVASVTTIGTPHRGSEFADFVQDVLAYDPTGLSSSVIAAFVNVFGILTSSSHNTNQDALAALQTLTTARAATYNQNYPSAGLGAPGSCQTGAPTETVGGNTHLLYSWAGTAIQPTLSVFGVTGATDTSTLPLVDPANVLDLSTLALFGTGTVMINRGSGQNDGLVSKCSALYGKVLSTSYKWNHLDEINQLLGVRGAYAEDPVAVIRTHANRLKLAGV
Description: as §1

Palatase M = molecular target: T2, Palatase M (Rhizomucor miehei, UniProt P19515); assay: Degree of inhibition by reaction products: initial rate of hydrolysis of compound A by Palatase M; format: biochemical; conditions: pH 8.0, 400 mM compound A in toluene, in the presence of 1 mmole (50 mM) of the compound, A alone = 1.0
T2 construct: purchased Novo
T2 sequence (P19515 95-363): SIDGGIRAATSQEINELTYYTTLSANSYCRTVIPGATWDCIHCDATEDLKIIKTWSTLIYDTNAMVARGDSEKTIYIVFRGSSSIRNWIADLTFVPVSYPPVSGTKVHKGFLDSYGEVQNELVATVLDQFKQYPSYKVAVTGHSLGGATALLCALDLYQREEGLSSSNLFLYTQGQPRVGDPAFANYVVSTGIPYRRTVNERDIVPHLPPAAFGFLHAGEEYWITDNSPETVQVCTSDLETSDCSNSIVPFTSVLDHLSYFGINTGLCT
Description: as §1

[7] = aqueous solution; cited from earlier work

Percent degradation ([1]; 1,4-dioxane, pH 7.0, 18 hours ambient): 40.9% | Percent degradation ([1]; 1,4-dioxane, pH 8.0, 18 hours ambient): 21.6% | Percent degradation ([1]; MIBK, pH 8.0, 18 hours ambient): 15.0% | Percent degradation ([1]; MIBK, pH 8.5, 18 hours ambient): 12.0% | Percent degradation ([1]; MetBuO, pH 7.0, 18 hours ambient): 41.8% | Percent degradation ([1]; MetBuO, pH 8.0, 18 hours ambient): 22.1% | Percent degradation ([1]; benzene, pH 7.0, 18 hours ambient): 38.5% | Percent degradation ([1]; benzene, pH 8.0, 18 hours ambient): 14.4% | Percent degradation ([1]; cyclohexane, pH 7.0, 18 hours ambient): 71.6% | Percent degradation ([1]; cyclohexane, pH 8.0, 18 hours ambient): 38.5% | Percent degradation ([1]; toluene, pH 8.0, 18 hours ambient): 14.3% | Percent degradation ([1]; toluene, pH 8.5, 18 hours ambient): 19.1% | Stability in aqueous buffer ([2]; aqueous sodium phosphate buffer pH 7.0, 18 hours, ambient temperature, no organic solvent or enzyme): loss of glycidic ester | Glycidic ester recovered ([2]; toluene in 1-to-1 phase ratio with pH 7.0 buffer, 18 hours): 100% | Loss of material [3]: 10% | Solubility of the ester in toluene [4]: ~0.13 g of racemic ester/g of toluene | Original amount of ester remaining ([5]; saturated methanol solution, room temperature, six days): about half | Original amount of ester degraded ([5]; saturated methanol solution, room temperature, two days, HPLC): about 9% | Degradation rate constant in MIBK relative to toluene [6]: about 3 times
SMILES: COC(=O)[C@@H]1O[C@H]1c1ccc(OC)cc1 (relative stereo) [Compound A, trans-3-(4-methoxyphenyl)glycidic acid methyl ester]

SMILES: COc1ccc(CC=O)cc1 [C, 4-methoxyphenylacetaldehyde]
Relative Initial Rates (Lipase OF): 0.63 | Relative Initial Rates (Lipase MAP): 0.73 | Relative Initial Rates (Lipase P): 1.00 | Relative Initial Rates (Palatase M): 0.38

SMILES: COc1ccc(CC(=O)O)cc1 [D, 4-methoxyphenylacetic acid]
Relative Initial Rates (Lipase OF): 1.18 | Relative Initial Rates (Lipase MAP): 0.99 | Relative Initial Rates (Lipase P): 1.07 | Relative Initial Rates (Palatase M): >1.0

SMILES: O=S(O)O [bisulfite anion]
pKa [7]: approximately 7

SMILES: COC(=O)[C@@H]1O[C@H]1c1ccc(OC)cc1 [resolved GLOP, (2R,3S)-3-(4-methoxyphenyl)glycidic acid methyl ester]
Stability in solution ([5]; aromatic solvent, ambient temperature, over days): stable against the loss of material or optical activity
